Test results reported in patent EP1914230B1 (The Arizona Board of Regents on behalf of the University of …, priority 2001, dated 2003).

Tests used:
C57BL6 mice = conditions: relative to wortmannin as 1.0; for Liver toxicity relative to wortmannic: mean percent increase in serum ALT and AST at the MTD or highest dose tested; for Lymphocyte toxicity relative to wortmannin: percent decrease in lymphocyte counts at the MTD or highest dose tested
From the text: (§1) Highlighted are the compounds being made for antitumor testing.

[1] = molecular target: phosphatidylinositol-3-kinase; assay: PI-3 kinase inhibition; type: biochemical
From the text: as §1

Compound | Liver toxicity relative to wortmannic (C57BL6 mice) | Lymphocyte toxicity relative to wortmannin (C57BL6 mice) | IC50 [1] [nM]
COC[C@H]1OC(=O)/C(=C/SCc2ccccc2)C2=C(O)C(=O)C3=C([C@H](OC(C)=O)C[C@]4(C)C(=O)CC[C@@H]34)[C@]21C [DJM2-170] | 1.7 | 1.1 | –
COC[C@H]1OC(=O)/C(=C/NC(C)C(=O)O)C2=C(O)C(=O)C3=C([C@H](OC(C)=O)C[C@]4(C)C(=O)CC[C@@H]34)[C@]21C (stereo partly drawn) [DJM2-177] | 0.2 | 2.0 | –
COC[C@H]1OC(=O)/C(=C/NCC(N)=O)C2=C(O)C(=O)C3=C([C@H](OC(C)=O)C[C@]4(C)C(=O)CC[C@@H]34)[C@]21C [DJM2-190] | – | 0.6 | –
COC[C@H]1OC(=O)c2coc3c2[C@@]1(C)C1=C(C3=O)[C@@H]2CCC(=O)[C@@]2(C)C[C@H]1OC(C)=O [wortmannin] | – | – | 0.3
